Each block holds one molecule with its values, some of them ahead of it.
Legend:
Type in all cases: binding
[1] = molecular target: T1, SSTR5 (Homo sapiens, UniProt P35346); assay: NanoBRET screen HiBiT-SSTR5 in HEK293
T1 construct: purchased Promega (in-house HiBiT-GPCR construct library, NanoBRET)
Protocol: (§1) Each tracer candidate was screened across the entire library of HiBiT-GPCR constructs using NanoBRET as the detection modality. As depicted in Figure 4A, the specificity of interactions was evaluated through decrease in BRET due to competitive displacement of a bound tracer by excess parental compound. Each tracer was analyzed for binding to each HiBiT-GPCR fusion in the absence and in the presence of competing parental compound. Briefly, HEK293 cells were transfected with HiBiT-GPCR constructs diluted into promoterless DNA to reduce expression and maximize translocation to the cell surface. Each tracer candidate was then screened at concentrations of 1 μM and 0.1 μM across cells expressing these fusions. Cells were treated for 1.5 h with tracer either alone or in the presence of 20 μM competing parental compound (i.e., control). BRET was measured upon addition of purified LgBiT and subsequent complementation with HiBiT genetically fused to a GPCR. The specificity of interactions was assessed through a decrease in BRET signal due to competitive displacement of the bound tracer. To further gauge the robustness of these interactions, the fold response over the control (i.e., BRETtracer/BRETcontrol) was calculated. We chose a 1.5-fold response, which translates to ≥7-fold signal over noise as the minimal threshold required to score an interaction as positive. […]. Below we highlight the screening results obtained for our exemplary fluorescent tracers based on Clozapine, Amitriptyline and AZD1283.
(§2) HiBiT-GPCR DNA constructs were diluted in 10 mM Tris pH 8 to a final concentration of 0.01 μg/μL, arrayed in 96-well plates and stored at −20 °C. For transfection, HEK293 cells were suspended in Opti-MEM (without phenol red) supplemented with 2% fetal bovine serum (Seradigm) and 100 units/mL penicillin–streptomycin (Gibco) at a final concentration of 220,000 cells/mL and dispensed into white 96-well plates at 90 μL/well. Subsequent transfections and screens were carried using an Agilent Bravo Automated Liquid Handling Platform. First, the 96-well HiBiT DNA arrays were diluted 25-fold in Opti-MEM (without serum or phenol red) to a final concentration of 0.0004 μg/μL and 20 μL of the diluted DNAs were transferred into new 96-well plates. Next, promoterless carrier DNA (1 μg/μL) was diluted 25-fold (0.04 μg/μL) and then dispensed into the diluted arrays at 20 μL/well. Following brief mixing, Viafect transfection reagent (Promega) diluted 16-fold into Opti-MEM was dispensed into the plates at 40 μL/well. After mixing by pipetting, plates were incubated for 10 min on the pipetting station deck. The DNA-transfection reagent complexes were then added to plates containing cells. To facilitate the screen, 10 μL of DNA-transfection reagent complexes were added in duplicates to the top 4 and bottom 4 rows, resulting in two identical 48-well arrays per plate. Plates with transfected cells were incubated for 18–20 h at 37 °C/5% CO2. A screen of each tracer across the entire library using two different concentrations requires duplicate plates of transfected cells. Depending on the number of tracers being screened, transfections can be scaled up using the same ratios. The next day, for each tracer, four 20× screening solutions in tracer dilution buffer (Promega) were prepared: two duplicates at final concentration of 20 μM and two duplicates at a final concentration of 2 μM. A competing unmodified compound was added to one of each duplicate at a final concentration of 400 μM. The four resulting solutions were diluted 4-fold in Opti-MEM without serum or phenol red to generate 5× solutions (5 µM and 0.5 µM tracer +/− 100 μM competing compound). To screen the library, a BioTek MultiFlo FX liquid dispenser was used to dispense 22.5 µL of tracer solution to the top 4 rows and 22.5 µL tracer + competing compound solution to the 4 bottom rows. Plates were briefly mixed on an orbital shaker and incubated for 1.5 h at room temperature. […]

[2] = molecular target: T2, FZD4 (Homo sapiens, UniProt Q9ULV1); assay: NanoBRET screen HiBiT-FZD4 in HEK293
T2 construct: purchased Promega (in-house HiBiT-GPCR construct library, NanoBRET)
T2 sequence (Q9ULV1 37-537): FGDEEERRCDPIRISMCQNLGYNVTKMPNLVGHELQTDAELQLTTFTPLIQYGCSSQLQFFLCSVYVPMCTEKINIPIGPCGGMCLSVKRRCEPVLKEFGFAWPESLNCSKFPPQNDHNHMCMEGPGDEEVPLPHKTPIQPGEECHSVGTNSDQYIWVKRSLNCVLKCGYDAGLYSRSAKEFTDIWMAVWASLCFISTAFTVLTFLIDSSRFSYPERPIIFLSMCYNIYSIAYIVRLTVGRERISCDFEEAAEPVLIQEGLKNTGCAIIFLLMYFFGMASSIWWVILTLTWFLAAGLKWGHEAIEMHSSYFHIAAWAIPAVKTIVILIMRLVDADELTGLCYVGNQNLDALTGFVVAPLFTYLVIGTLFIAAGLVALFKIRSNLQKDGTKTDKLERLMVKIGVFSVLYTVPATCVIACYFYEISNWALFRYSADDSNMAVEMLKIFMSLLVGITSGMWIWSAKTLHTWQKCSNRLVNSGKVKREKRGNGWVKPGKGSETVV
Protocol: as §1, §2

[3] = molecular target: T3, CXCR3 (Homo sapiens, UniProt P49682); assay: NanoBRET screen HiBiT-CXCR3 in HEK293
T3 construct: purchased Promega (in-house HiBiT-GPCR construct library, NanoBRET)
T3 sequence (P49682 1-368): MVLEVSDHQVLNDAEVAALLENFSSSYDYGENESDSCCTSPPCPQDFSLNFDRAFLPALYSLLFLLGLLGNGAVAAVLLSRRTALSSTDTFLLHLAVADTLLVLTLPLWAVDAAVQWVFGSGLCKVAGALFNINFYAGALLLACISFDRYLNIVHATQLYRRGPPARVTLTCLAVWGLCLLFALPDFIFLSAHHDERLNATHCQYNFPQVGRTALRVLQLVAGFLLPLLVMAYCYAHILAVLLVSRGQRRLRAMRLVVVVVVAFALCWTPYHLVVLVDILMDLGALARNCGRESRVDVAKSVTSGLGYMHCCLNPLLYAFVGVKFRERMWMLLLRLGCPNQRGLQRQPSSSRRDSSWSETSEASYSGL
Protocol: as §1, §2

[4] = molecular target: T4, MCHR1 (Homo sapiens, UniProt Q99705); assay: NanoBRET screen HiBiT-MCHR1 in HEK293
T4 construct: purchased Promega (in-house HiBiT-GPCR construct library, NanoBRET)
T4 sequence (Q99705 whole entry): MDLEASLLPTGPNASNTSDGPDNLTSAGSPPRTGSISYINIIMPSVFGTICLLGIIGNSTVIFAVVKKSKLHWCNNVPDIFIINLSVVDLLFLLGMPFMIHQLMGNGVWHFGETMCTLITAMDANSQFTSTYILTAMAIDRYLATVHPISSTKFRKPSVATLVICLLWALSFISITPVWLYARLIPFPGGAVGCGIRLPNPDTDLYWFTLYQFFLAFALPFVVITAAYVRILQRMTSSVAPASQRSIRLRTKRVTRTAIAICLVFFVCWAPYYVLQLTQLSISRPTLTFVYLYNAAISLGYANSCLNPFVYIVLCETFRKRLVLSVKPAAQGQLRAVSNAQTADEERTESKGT
Protocol: as §1, §2

[5] = tracer at 0.1μM, listed as amitriptyline-b-2-NB590
[6] = tracer at 1μM, listed as amitriptyline-b-2-NB590

T1 sequence (P35346 whole entry): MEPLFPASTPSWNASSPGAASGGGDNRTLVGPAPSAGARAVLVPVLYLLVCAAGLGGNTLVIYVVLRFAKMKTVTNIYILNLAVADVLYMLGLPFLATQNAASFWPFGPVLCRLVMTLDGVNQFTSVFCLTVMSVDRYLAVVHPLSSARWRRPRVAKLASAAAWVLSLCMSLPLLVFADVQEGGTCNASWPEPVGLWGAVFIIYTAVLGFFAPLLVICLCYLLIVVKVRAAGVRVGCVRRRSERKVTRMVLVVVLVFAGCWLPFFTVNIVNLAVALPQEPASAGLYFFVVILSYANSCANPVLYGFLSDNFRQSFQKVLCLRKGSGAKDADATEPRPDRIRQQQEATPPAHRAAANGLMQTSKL

- NanoBRET Fold Response ([1]; SSTR5, 0.1μM): 1.09
- NanoBRET Fold Response ([1]; SSTR5, 1μM): 1.05
- NanoBRET Fold Response ([2]; FZD4, 0.1μM): 1.03
- NanoBRET Fold Response ([2]; FZD4, 1μM): 1.03
- NanoBRET Fold Response ([3]; CXCR3, 0.1μM): 0.98
- NanoBRET Fold Response ([3]; CXCR3, 1μM): 1.17
- NanoBRET Fold Response ([4]; MCHR1, 0.1μM): 1.00
- NanoBRET Fold Response ([4]; MCHR1, 1μM): 1.08
SMILES: CCOC(=O)c1cc(C#N)c(N2CCC(C(=O)NS(=O)(=O)Cc3ccccc3/C=C/C(=O)NCCNC(=O)CCc3ccc4n3[B-](F)(F)[N+]3=C(c5ccc[nH]5)C=CC3=C4)CC2)nc1C [AZD1283-1-NB590]

SMILES: CN(C)CCC=C1c2ccccc2CCc2ccc(C(=O)NCCNC(=O)CCOCCOCCOCCOCCNC(=O)CCc3ccc4n3[B-](F)(F)[N+]3=C(c5ccc[nH]5)C=CC3=C4)cc21 [Amitriptyline-b-2-NB590]
- NanoBRET Fold Response [1, 5]: 0.96
- NanoBRET Fold Response ([1]; tracer at 1μM): 0.97
- NanoBRET Fold Response [2, 5]: 1.12
- NanoBRET Fold Response [2, 6]: 1.19
- NanoBRET Fold Response [3, 5]: 1.05
- NanoBRET Fold Response [3, 6]: 0.98
- NanoBRET Fold Response [4, 5]: 0.79
- NanoBRET Fold Response [4, 6]: 1.01

SMILES: CN(C)CCC=C1c2ccccc2CCc2ccc(C(=O)NCCNC(=O)CCOCCOCCOCCOCCNC(=O)CCc3ccc4n3[B-](F)(F)[N+]3=C(c5ccc[nH]5)C=CC3=C4)cc21 [Amitriptyline-a-2-NB590]
- NanoBRET Fold Response ([1]; tracer at 0.1μM): 1.00
- NanoBRET Fold Response ([1]; tracer at 1μM): 1.05
- NanoBRET Fold Response ([2]; tracer at 0.1μM): 1.01
- NanoBRET Fold Response ([2]; tracer at 1μM): 1.01
- NanoBRET Fold Response ([3]; tracer at 0.1μM): 1.00
- NanoBRET Fold Response ([3]; tracer at 1μM): 0.97
- NanoBRET Fold Response ([4]; tracer at 0.1μM): 1.01
- NanoBRET Fold Response ([4]; tracer at 1μM): 1.09

SMILES: O=C(CCc1ccc2n1[B-](F)(F)[N+]1=C(c3ccc[nH]3)C=CC1=C2)NCCOCCOCCNC(=O)OCCOCCN1CCN(C2=Nc3ccccc3Sc3ccccc32)CC1 [Quetiapine-a-2-NB590]
- NanoBRET Fold Response ([1]; SSTR5, tracer 0.1μM): 1.03
- NanoBRET Fold Response ([1]; SSTR5, tracer 1μM): 0.83
- NanoBRET Fold Response ([2]; FZD4, tracer 0.1μM): 0.96
- NanoBRET Fold Response ([2]; FZD4, tracer 1μM): 0.91
- NanoBRET Fold Response ([3]; CXCR3, tracer 0.1μM): 1.00
- NanoBRET Fold Response ([3]; CXCR3, tracer 1μM): 1.14
- NanoBRET Fold Response ([4]; MCHR1, tracer 0.1μM): 1.04
- NanoBRET Fold Response ([4]; MCHR1, tracer 1μM): 0.84

SMILES: Cc1cc2c(s1)Nc1ccccc1N=C2N1CCN(CCCNC(=O)CCOCCOCCOCCOCCNC(=O)CCc2ccc3n2[B-](F)(F)[N+]2=C(c4ccc[nH]4)C=CC2=C3)CC1 [Olanzapine-a-2-NB590]
- NanoBRET Fold Response ([1]; SSTR5, tracer 0.1μM): 1.01
- NanoBRET Fold Response ([1]; SSTR5, tracer 1μM): 1.02
- NanoBRET Fold Response ([2]; FZD4, tracer 0.1μM): 1.00
- NanoBRET Fold Response ([2]; FZD4, tracer 1μM): 0.93
- NanoBRET Fold Response ([3]; CXCR3, tracer 0.1μM): 1.05
- NanoBRET Fold Response ([3]; CXCR3, tracer 1μM): 0.89
- NanoBRET Fold Response ([4]; MCHR1, tracer 0.1μM): 1.04
- NanoBRET Fold Response ([4]; MCHR1, tracer 1μM): 1.13

SMILES: CN1CCN(C2=Nc3cc(Cl)ccc3Nc3ccc(CNC(=O)CCOCCOCCOCCOCCNC(=O)CCc4ccc5n4[B-](F)(F)[N+]4=C(c6ccc[nH]6)C=CC4=C5)cc32)CC1 [Clozapine-b-2-NB590]
- NanoBRET Fold Response ([1]; SSTR5, 0.1μM tracer): 1.03
- NanoBRET Fold Response ([1]; SSTR5, 1μM tracer): 1.00
- NanoBRET Fold Response ([2]; FZD4, 0.1μM tracer): 0.99
- NanoBRET Fold Response ([2]; FZD4, 1μM tracer): 1.03
- NanoBRET Fold Response ([3]; CXCR3, 0.1μM tracer): 0.97
- NanoBRET Fold Response ([3]; CXCR3, 1μM tracer): 0.94
- NanoBRET Fold Response ([4]; MCHR1, 0.1μM tracer): 0.96
- NanoBRET Fold Response ([4]; MCHR1, 1μM tracer): 1.00

- NanoBRET Fold Response ([1]; 0.1μM tracer): 0.82
- NanoBRET Fold Response ([1]; 1μM tracer): 0.99
- NanoBRET Fold Response ([2]; 0.1μM tracer): 0.91
- NanoBRET Fold Response ([2]; 1μM tracer): 0.91
- NanoBRET Fold Response ([3]; 0.1μM tracer): 1.19
- NanoBRET Fold Response ([3]; 1μM tracer): 0.93
- NanoBRET Fold Response ([4]; 0.1μM tracer): 0.96
- NanoBRET Fold Response ([4]; 1μM tracer): 0.84
SMILES: COc1ccc2c(n1)c(CCNC(C)=O)cn2CCNC(=O)CCc1ccc2n1[B-](F)(F)[N+]1=C(c3ccc[nH]3)C=CC1=C2 [Azamelatonin-1-NB590]

SMILES: O=C(CCc1ccc2n1[B-](F)(F)[N+]1=C(c3ccc[nH]3)C=CC1=C2)NCc1ccc(C(=O)NCCOCCOCCNCC(O)COc2cccc3ccccc23)cc1 (stereo not drawn) [Propranolol-3-NB590]
- NanoBRET Fold Response ([1]; SSTR5, 0.1μM): 1.01
- NanoBRET Fold Response ([1]; SSTR5, 1μM): 1.02
- NanoBRET Fold Response ([2]; FZD4, 0.1μM): 1.09
- NanoBRET Fold Response ([2]; FZD4, 1μM): 1.07
- NanoBRET Fold Response ([3]; CXCR3, 0.1μM): 0.99
- NanoBRET Fold Response ([3]; CXCR3, 1μM): 0.90
- NanoBRET Fold Response ([4]; MCHR1, 0.1μM): 0.96
- NanoBRET Fold Response ([4]; MCHR1, 1μM): 1.03

- NanoBRET Fold Response ([1]; SSTR5, 0.1μM tracer): 0.97
- NanoBRET Fold Response ([1]; SSTR5, 1μM tracer): 1.00
- NanoBRET Fold Response ([2]; FZD4, 0.1μM tracer): 1.20
- NanoBRET Fold Response ([2]; FZD4, 1μM tracer): 0.95
- NanoBRET Fold Response ([3]; CXCR3, 0.1μM tracer): 1.02
- NanoBRET Fold Response ([3]; CXCR3, 1μM tracer): 1.22
- NanoBRET Fold Response ([4]; MCHR1, 0.1μM tracer): 0.87
- NanoBRET Fold Response ([4]; MCHR1, 1μM tracer): 1.26
SMILES: O=C(CCOCCOCCOCCOCCNC(=O)CCc1ccc2n1[B-](F)(F)[N+]1=C(c3ccc[nH]3)C=CC1=C2)NCCCN1CCN(C2=Nc3cc(Cl)ccc3Nc3ccccc32)CC1 [Clozapine-a-2-NB590]
